Biological target: T1, human P2X4 (Homo sapiens, UniProt Q99571)
T1 sequence (Q99571 1-388): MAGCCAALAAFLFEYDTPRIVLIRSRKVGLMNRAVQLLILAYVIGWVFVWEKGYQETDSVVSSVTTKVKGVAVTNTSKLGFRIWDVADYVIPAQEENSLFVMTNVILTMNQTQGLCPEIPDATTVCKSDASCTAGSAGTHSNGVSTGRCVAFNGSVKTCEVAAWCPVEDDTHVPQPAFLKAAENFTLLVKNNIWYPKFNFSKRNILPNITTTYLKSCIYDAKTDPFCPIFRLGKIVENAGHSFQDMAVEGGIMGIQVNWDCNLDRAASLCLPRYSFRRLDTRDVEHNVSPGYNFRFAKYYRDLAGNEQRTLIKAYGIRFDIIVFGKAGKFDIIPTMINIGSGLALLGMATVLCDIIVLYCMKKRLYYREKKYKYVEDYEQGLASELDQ
Assay: Human P2X4 HEK Cell FLIPR Assay
Type: cell-based
Conditions: agonist Bz-ATP at EC80; for Emax: HEK293, HEK293 cells, read-out: Human P2X4 HEK Cells (FLIPR Assay) avg Efficacy [%]; for Emax / Human P2X4 HEK Cells (FLIPR Assay) avg Efficacy [%]: percentage of maximal inhibition; for IC50 / Human P2X4 HEK Cells (FLIPR Assay) avg Efficacy [%]: HEK293 cells; for IC50: individual values listed where some fall outside detection range
Procedure: HEK293 cells stably expressing human P2X4 were plated in poly-D-lysine-coated 384-well plates at a seeding density of 30000 cells/well and incubated overnight. P2X4 function was assessed by measuring intracellular calcium changes using the calcium-chelating dye Fluo8-AM (Molecular Devices) on a fluorescent imaging plate reader (FLEX/FLIPR station; Molecular Devices). On the day of the assay, the medium was removed and the cells were incubated for 30 min at 37° C. and 5% CO2 in 30 μL of dye buffer (Hank's balanced salt solution, 10 mM HEPES, 1.8 mM CaCl2, 1 mM MgCl2, 2 mM probenecid, 5 mM D-glucose monohydrate, 5 μM Fluo8-AM, pH=7.4). Compounds diluted in probenecid buffer (Hank's balanced salt solution, 10 mM HEPES, 1.8 mM CaCl2, 1 mM MgCl2, 2 mM probenecid, 5 mM D-glucose monohydrate, pH=7.4) were added in a volume of 10 μL and allowed to incubate for 30 min at room temperature. The final assay DMSO concentration was 0.5%. The agonist, Bz-ATP (Tocris), was added in a volume of 10 μL at a concentration representing the EC80 value. The EC80 value of Bz-ATP was determined each assay day prior to compound profiling. The fluorescence was measured for an interval of 120 sec at 2 sec intervals. The excitation and emission wavelengths used to monitor fluorescence were 470-495 nm and 515-575 nm, respectively. The data was analyzed based on the increase in peak relative fluorescence units (RFU) compared to the basal fluorescence and the data was normalized to the agonist control. The compounds were tested in triplicates per plate and mean values were plotted in Excel XLFit to determine IC50 values, percentage of maximal inhibition and the Hill coefficients.

Row | Emax | IC50 | Human P2X4 HEK Cells (FLIPR Assay) avg Efficacy [%] | Compound
1 | 63% | 172 nM | – | CC(C(=O)Nc1cnn(-c2ccc(NC(=O)Cc3ccccc3Cl)cc2S(N)(=O)=O)c1)C(F)(F)F (racemic) [Example 508, N-[1-(4-{[(2-Chlorophenyl)acetyl]amino}-2-sulfamoylphenyl)-1H-pyrazol-4-yl]-3,3,3-trifluoro-2-methylpropanamide]
2 | 71% | 326 nM | – | CC(C(=O)Nc1cnn(-c2ccc(NC(=O)Cc3ccccc3Cl)cc2S(N)(=O)=O)c1)C(F)(F)F (single isomer, unassigned) [Example 509, N-[1-(4-{[(2-Chlorophenyl)acetyl]amino}-2-sulfamoylphenyl)-1H-pyrazol-4-yl]-3,3,3-trifluoro-2-methylpropanamide]
3 | – | 439 nM | 73% | CC(C(=O)Nc1cnn(-c2ccc(NC(=O)Cc3ccccc3Cl)cc2S(N)(=O)=O)c1)C(F)(F)F (single isomer, unassigned) [Example 510, N-[1-(4-{[(2-Chlorophenyl)acetyl]amino}-2-sulfamoylphenyl)-1H-pyrazol-4-yl]-3,3,3-trifluoro-2-methylpropanamide]
4 | 76% | 4250 nM | – | C[C@H]1CC[C@H](C)N1c1cnn(-c2ccc(NC(=O)Cc3ccccc3Cl)cc2S(N)(=O)=O)c1 (single isomer, unassigned) [Example 512, 2-(2-Chlorophenyl)-N-(4-{4-[(trans)-2,5-dimethylpyrrolidin-1-yl]-1H-pyrazol-1-yl}-3-sulfamoylphenyl)acetamide]
5 | – | 893 nM | 94% | C[C@H]1CC[C@H](C)N1c1cnn(-c2ccc(NC(=O)Cc3ccccc3Cl)cc2S(N)(=O)=O)c1 (single isomer, unassigned) [Example 513, 2-(2-Chlorophenyl)-N-(4-{4-[(trans)-2,5-dimethylpyrrolidin-1-yl]-1H-pyrazol-1-yl}-3-sulfamoylphenyl)acetamide]
6 | 50% | 19400 nM | – | NS(=O)(=O)c1cc(NC(=O)Cc2ccccc2Cl)ccc1-n1ccc(Cl)cc1=O [Example 2, N-[4-(4-Chloro-2-oxopyridin-1(2H)-yl)-3-sulfamoylphenyl]-2-(2-chlorophenyl)-acetamide]
7 | 76% | 942 nM | – | NS(=O)(=O)c1cc(NC(=O)Cc2ccccc2Cl)ccc1-n1cc(Cl)cc(Cl)c1=O [Example 3, 2-(2-Chlorophenyl)-N-[4-(3,5-dichloro-2-oxopyridin-1(2H)-yl)-3-sulfamoylphenyl]-acetamide]
8 | 83% | 259 nM | – | NS(=O)(=O)c1cc(NC(=O)Cc2ccccc2Cl)ccc1-n1cccc(Cl)c1=O [Example 4, N-[4-(3-Chloro-2-oxopyridin-1(2H)-yl)-3-sulfamoylphenyl]-2-(2-chlorophenyl)-acetamide]
9 | 91% | 249 nM | – | Cc1ncn(-c2ccc(NC(=O)Cc3ccccc3Cl)cc2S(N)(=O)=O)n1 [Example 5, 2-(2-Chlorophenyl)-N-[4-(3-methyl-1H-1,2,4-triazol-1-yl)-3-sulfamoylphenyl]-acetamide]
10 | 84% | 1070 nM | – | Cc1ncnn1-c1ccc(NC(=O)Cc2ccccc2Cl)cc1S(N)(=O)=O [Example 6, 2-(2-Chlorophenyl)-N-[4-(5-methyl-1H-1,2,4-triazol-1-yl)-3-sulfamoylphenyl]-acetamide]
11 | 73% | 3080 nM | – | NS(=O)(=O)c1cc(NC(=O)Cc2ccccc2Cl)ccc1-n1cnc(C(F)(F)F)n1 [Example 7, 2-(2-Chlorophenyl)-N-{3-sulfamoyl-4-[3-(trifluoromethyl)-1H-1,2,4-triazol-1-yl]-phenyl}acetamide]
12 | 79% | 2560 nM | – | Cc1nc(C(F)(F)F)nn1-c1ccc(NC(=O)Cc2ccccc2Cl)cc1S(N)(=O)=O [Example 8, 2-(2-Chlorophenyl)-N-{4-[5-methyl-3-(trifluoromethyl)-1H-1,2,4-triazol-1-yl]-3-sulfamoylphenyl}acetamide]
13 | 83% | 7 nM | – | NS(=O)(=O)c1cc(NC(=O)Cc2ccccc2Cl)ccc1-n1ccnc1 [Example 9, 2-(2-Chlorophenyl)-N-[4-(1H-imidazol-1-yl)-3-sulfamoylphenyl]acetamide]
14 | 81% | 7 nM | – | NS(=O)(=O)c1cc(NC(=O)Cc2ccccc2Cl)ccc1-n1cnc(C(F)(F)F)c1 [Example 10, 2-(2-Chlorophenyl)-N-{3-sulfamoyl-4-[4-(trifluoromethyl)-1H-imidazol-1-yl]phenyl}-acetamide]
15 | 31% | > 25000 nM | – | NS(=O)(=O)c1cc(NC(=O)Cc2ccccc2Cl)ccc1-n1ccc(C(F)(F)F)n1 [Example 11, 2-(2-Chlorophenyl)-N-{3-sulfamoyl-4-[3-(trifluoromethyl)-1H-pyrazol-1-yl]phenyl}-acetamide]
16 | 34% | > 25000 nM | – | NS(=O)(=O)c1cc(NC(=O)Cc2ccccc2Cl)ccc1-n1ccc(C(F)F)n1 [Example 12, 2-(2-Chlorophenyl)-N-{4-[3-(difluoromethyl)-1H-pyrazol-1-yl]-3-sulfamoyl-phenyl}acetamide]
17 | 100% | 514 nM | – | NS(=O)(=O)c1cc(NC(=O)Cc2ccccc2Cl)ccc1-n1nc(C(F)F)cc1C1CC1 [Example 13, 2-(2-Chlorophenyl)-N-{4-[5-cyclopropyl-3-(difluoromethyl)-1H-pyrazol-1-yl]-3-sulfamoylphenyl}acetamide]
18 | 26% | > 25000 nM | – | Cc1cn(-c2ccc(NC(=O)Cc3ccccc3Cl)cc2S(N)(=O)=O)nc1C(F)(F)F [Example 14, 2-(2-Chlorophenyl)-N-{4-[4-methyl-3-(trifluoromethyl)-1H-pyrazol-1-yl]-3-sulfamoylphenyl}acetamide]
19 | 99% | 379 nM | – | Cc1cc(C(F)(F)F)nn1-c1ccc(NC(=O)Cc2ccccc2Cl)cc1S(N)(=O)=O [Example 15, 2-(2-Chlorophenyl)-N-{4-[5-methyl-3-(trifluoromethyl)-1H-pyrazol-1-yl]-3-sulfamoylphenyl}acetamide]
20 | 89% | 262 nM | – | NS(=O)(=O)c1cc(NC(=O)Cc2ccccc2Cl)ccc1-n1cncn1 [Example 16, 2-(2-Chlorophenyl)-N-[3-sulfamoyl-4-(1H-1,2,4-triazol-1-yl)phenyl]acetamide]
21 | 89% | 288 nM | – | NS(=O)(=O)c1cc(NC(=O)Cc2ccccc2Cl)ccc1-n1cnc(C(F)F)n1 [Example 17, 2-(2-Chlorophenyl)-N-{4-[3-(difluoromethyl)-1H-1,2,4-triazol-1-yl]-3-sulfamoyl-phenyl}acetamide]
22 | 66% | 4700 nM | – | NS(=O)(=O)c1cc(NC(=O)Cc2ccccc2F)ccc1-n1cnc(C(F)F)n1 [Example 18, N-{4-[3-(Difluoromethyl)-1H-1,2,4-triazol-1-yl]-3-sulfamoylphenyl}-2-(2-fluoro-phenyl)acetamide]
23 | 67% | – | – | NS(=O)(=O)c1cc(NC(=O)Cc2ccccc2F)ccc1-n1cc(C(F)(F)F)cn1 [Example 20, 2-(2-Fluorophenyl)-N-{3-sulfamoyl-4-[4-(trifluoromethyl)-1H-pyrazol-1-yl]phenyl}-acetamide]
24 | 67% | 170 nM | – | NS(=O)(=O)c1cc(NC(=O)Cc2ccccc2C(F)F)ccc1-n1cc(C(F)(F)F)cn1 [Example 21, 2-[2-(Difluoromethyl)phenyl]-N-{3-sulfamoyl-4-[4-(trifluoromethyl)-1H-pyrazol-1-yl]phenyl}acetamide]
25 | 76% | 224 nM | – | NS(=O)(=O)c1cc(NC(=O)Cc2ccccc2C(F)(F)F)ccc1-n1cc(C(F)(F)F)cn1 [Example 22, N-{3-Sulfamoyl-4-[4-(trifluoromethyl)-1H-pyrazol-1-yl]phenyl}-2-[2-(trifluoromethyl)-phenyl]acetamide]
26 | 89% | 1180 nM | – | CC(C)(C)c1ncn(-c2ccc(NC(=O)Cc3ccccc3Cl)cc2S(N)(=O)=O)n1 [Example 23, N-[4-(3-tert-Butyl-1H-1,2,4-triazol-1-yl)-3-sulfamoylphenyl]-2-(2-chlorophenyl)-acetamide]
27 | 93% | – | – | NS(=O)(=O)c1cc(NC(=O)Cc2ccccc2Cl)ccc1-n1cc(Cl)cn1 [Example 25, 2-(2-Chlorophenyl)-N-[4-(4-chloro-1H-pyrazol-1-yl)-3-sulfamoylphenyl]acetamide]

— patent publication US11524938B2, “Aromatic sulfonamide derivatives” (Bayer Pharma Aktiengesellschaft, priority 2016, dated 2022)
